The test system of test [1] is thromboemboli from laser-induced thrombi. In words: thromboembolization from laser-induced thrombi (intravital videomicroscopy). The class given is in vivo, mouse. Here is the method:
(A) Thromboembolic events distal from the thrombus were captured using quantitative intravital fluorescence videomicroscopy with high temporal resolution( (111 frames/second) and the total amount of thromboembolization was calculated by determining the total fluorescence intensity of the fluorescently labeled platelets in thromboemboli. (B) Thromboembolization was recorded before infusion of pyridazinone compound. Platelet accumulation into thrombus is indicated by the gray line. Thromboembolism from the same thrombus is measured over time and is indicated by black bars. Each black bar represents a single thromboembolic event of the indicated fluorescent intensity.
Under these conditions, a dynamic thrombus that undergoes continuous cyclic embolization and re-accumulation is observed. The degree of embolization in an untreated mouse can be quantified using software for image analysis, e.g., BioQuant True Color Windows (Biometrics, Nashville, Tenn.), as described in Rosen et al., 2001, supra. […]
Using quantitative intravital fluorescence videomicroscopy with high temporal resolution, thromboemboli were detected and the total amount of fluorescence of the thromboemboli was measured (FIG. 11A). For this analysis, thromboembolus was defined as a platelet aggregate with a fluorescent intensity two standard deviations above the maximum background fluorescence of the arteriole before injury. […]

Another test addresses T1, human platelet PDE3 (Homo sapiens, UniProt Q14432).
T1 construct: from tissue; host or cells: human platelets
The experiment in a line: phosphodiesterase inhibition, PDE3. The test is classed as biochemical. How it is done: (§1) Intracellular cAMP generated by adenylyl cyclase in platelets is actively hydrolyzed by phosphodiesterase. […] Human platelets express PDE2, PDE3, and PDE5. Therefore, the compound was tested for its inhibitory effect on these phosphodiesterases using methods as described in Example 3.

Another test addresses recombinant human PDE2 (Homo sapiens, UniProt O00408). In words: phosphodiesterase inhibition, PDE2. The test is classed as biochemical. As to conditions: up to 1 μM, in words. How it is done:
as §1

Molecules are shown by their SMILES.

Sequence of recombinant human PDE2 (O00408 whole entry): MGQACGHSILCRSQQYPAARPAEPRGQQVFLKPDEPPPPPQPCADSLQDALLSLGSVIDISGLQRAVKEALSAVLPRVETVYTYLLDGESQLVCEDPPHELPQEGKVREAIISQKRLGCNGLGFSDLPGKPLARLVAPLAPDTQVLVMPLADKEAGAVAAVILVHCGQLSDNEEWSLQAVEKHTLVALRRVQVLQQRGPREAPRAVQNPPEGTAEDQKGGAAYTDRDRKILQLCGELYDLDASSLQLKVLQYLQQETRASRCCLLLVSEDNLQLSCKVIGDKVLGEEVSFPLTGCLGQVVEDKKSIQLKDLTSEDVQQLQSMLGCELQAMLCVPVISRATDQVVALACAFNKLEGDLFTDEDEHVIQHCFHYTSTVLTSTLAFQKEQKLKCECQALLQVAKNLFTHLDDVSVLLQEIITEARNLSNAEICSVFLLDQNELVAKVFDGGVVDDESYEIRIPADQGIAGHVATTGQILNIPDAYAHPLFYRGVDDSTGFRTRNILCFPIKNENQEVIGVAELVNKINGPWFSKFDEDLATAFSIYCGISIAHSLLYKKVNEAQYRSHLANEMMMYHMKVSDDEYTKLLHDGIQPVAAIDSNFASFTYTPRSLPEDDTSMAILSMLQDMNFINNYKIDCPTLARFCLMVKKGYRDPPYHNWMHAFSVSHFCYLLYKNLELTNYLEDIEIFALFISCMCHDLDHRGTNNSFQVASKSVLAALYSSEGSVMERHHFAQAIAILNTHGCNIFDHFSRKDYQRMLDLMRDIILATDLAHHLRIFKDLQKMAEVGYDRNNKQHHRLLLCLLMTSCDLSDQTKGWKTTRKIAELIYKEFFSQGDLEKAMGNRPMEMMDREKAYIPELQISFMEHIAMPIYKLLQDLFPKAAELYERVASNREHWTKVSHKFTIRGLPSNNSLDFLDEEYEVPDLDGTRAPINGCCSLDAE
T1 sequence (Q14432 whole entry): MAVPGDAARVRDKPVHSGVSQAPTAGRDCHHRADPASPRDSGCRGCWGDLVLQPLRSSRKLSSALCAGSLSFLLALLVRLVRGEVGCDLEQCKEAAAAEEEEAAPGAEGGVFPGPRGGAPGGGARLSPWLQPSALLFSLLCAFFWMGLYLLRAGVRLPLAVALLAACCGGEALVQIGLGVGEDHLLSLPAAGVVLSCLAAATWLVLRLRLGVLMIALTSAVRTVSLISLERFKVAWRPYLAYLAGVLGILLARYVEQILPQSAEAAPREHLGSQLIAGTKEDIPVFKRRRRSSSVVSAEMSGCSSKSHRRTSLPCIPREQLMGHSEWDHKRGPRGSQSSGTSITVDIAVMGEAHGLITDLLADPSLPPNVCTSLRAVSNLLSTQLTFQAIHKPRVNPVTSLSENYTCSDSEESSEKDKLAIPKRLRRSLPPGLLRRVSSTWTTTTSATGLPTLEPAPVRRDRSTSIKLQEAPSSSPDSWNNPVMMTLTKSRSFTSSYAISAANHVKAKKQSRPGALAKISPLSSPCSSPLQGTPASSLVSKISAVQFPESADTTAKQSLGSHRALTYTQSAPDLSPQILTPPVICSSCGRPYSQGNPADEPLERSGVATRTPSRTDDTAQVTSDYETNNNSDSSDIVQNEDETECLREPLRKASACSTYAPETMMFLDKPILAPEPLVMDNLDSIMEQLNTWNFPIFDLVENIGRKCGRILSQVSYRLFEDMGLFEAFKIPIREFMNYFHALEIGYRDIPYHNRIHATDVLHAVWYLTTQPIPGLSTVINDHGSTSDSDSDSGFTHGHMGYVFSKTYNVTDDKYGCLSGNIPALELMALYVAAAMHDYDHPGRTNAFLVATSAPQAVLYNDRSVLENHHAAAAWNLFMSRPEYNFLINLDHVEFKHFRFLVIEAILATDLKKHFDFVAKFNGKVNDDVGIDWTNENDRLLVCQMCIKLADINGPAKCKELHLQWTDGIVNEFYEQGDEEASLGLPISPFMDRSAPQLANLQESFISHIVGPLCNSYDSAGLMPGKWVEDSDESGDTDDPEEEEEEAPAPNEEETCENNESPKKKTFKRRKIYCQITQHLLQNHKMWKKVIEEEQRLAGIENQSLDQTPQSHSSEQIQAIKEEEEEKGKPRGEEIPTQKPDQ

Take `CC1CC(=O)NN=C1c1ccc(N)c([N+](=O)[O-])c1` (centres unmarked) [6-(4-Amino-3-nitro-phenyl)-5-methyl-4,5-dihydro-2H-pyridazin-3-one]: the thromboembolization after infusion entry in test [1] (1.2 mg/kg, in words) is reported as “significantly reduced”. Further, in test [1] (after injection of compound), the reduction of embolization result is given as “greater than 80%”. Also, half-maximal inhibition at human platelet PDE3 (IC50) was put at 15 nM. The “inhibition of recombinant human PDE2” value is listed as “No significant inhibition” on recombinant human PDE2 (listed as Pyridazinone compound) and “little inhibition” on recombinant human PDE2 (listed as pyridazinone compound).

(Values after patent US7166612B2, “Methods for reducing platelet activation platelet aggregaton or thrombosis” (Beth Israel Deaconess Medical Center, priority 2001, dated 2007).)
